Experiments:
[1] = molecular target: Epidermal growth factor receptor (Homo sapiens, UniProt P00533); experiment: Inhibition of EGFR phosphorylation at Y 1173 residues in human HeLa cells preincubated for 30 mins followed by EGF-stimulation and measured after 2 mins by ELISA; type: cell-based
[2] = molecular target: T1, SOS1-KRAS (Homo sapiens, UniProt P01116+Q07889, G12C); experiment: Inhibition of human N-terminal GST-tagged K-RasG12C mutant/human N-terminal His-tagged SOS1 preincubated for 2 mis followed by SOS1 addition and measured after 10 mins in presence of EDA-GTP-Dy647P1 by HTRF assay
T1 sequence (P01116 whole entry G12C, stated change not applied): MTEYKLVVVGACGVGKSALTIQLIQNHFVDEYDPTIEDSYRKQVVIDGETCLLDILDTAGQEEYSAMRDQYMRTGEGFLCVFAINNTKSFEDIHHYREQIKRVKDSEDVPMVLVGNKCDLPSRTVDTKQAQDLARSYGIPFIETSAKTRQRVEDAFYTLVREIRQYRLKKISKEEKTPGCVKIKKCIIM
T1 sequence (Q07889 whole entry, stated change not applied): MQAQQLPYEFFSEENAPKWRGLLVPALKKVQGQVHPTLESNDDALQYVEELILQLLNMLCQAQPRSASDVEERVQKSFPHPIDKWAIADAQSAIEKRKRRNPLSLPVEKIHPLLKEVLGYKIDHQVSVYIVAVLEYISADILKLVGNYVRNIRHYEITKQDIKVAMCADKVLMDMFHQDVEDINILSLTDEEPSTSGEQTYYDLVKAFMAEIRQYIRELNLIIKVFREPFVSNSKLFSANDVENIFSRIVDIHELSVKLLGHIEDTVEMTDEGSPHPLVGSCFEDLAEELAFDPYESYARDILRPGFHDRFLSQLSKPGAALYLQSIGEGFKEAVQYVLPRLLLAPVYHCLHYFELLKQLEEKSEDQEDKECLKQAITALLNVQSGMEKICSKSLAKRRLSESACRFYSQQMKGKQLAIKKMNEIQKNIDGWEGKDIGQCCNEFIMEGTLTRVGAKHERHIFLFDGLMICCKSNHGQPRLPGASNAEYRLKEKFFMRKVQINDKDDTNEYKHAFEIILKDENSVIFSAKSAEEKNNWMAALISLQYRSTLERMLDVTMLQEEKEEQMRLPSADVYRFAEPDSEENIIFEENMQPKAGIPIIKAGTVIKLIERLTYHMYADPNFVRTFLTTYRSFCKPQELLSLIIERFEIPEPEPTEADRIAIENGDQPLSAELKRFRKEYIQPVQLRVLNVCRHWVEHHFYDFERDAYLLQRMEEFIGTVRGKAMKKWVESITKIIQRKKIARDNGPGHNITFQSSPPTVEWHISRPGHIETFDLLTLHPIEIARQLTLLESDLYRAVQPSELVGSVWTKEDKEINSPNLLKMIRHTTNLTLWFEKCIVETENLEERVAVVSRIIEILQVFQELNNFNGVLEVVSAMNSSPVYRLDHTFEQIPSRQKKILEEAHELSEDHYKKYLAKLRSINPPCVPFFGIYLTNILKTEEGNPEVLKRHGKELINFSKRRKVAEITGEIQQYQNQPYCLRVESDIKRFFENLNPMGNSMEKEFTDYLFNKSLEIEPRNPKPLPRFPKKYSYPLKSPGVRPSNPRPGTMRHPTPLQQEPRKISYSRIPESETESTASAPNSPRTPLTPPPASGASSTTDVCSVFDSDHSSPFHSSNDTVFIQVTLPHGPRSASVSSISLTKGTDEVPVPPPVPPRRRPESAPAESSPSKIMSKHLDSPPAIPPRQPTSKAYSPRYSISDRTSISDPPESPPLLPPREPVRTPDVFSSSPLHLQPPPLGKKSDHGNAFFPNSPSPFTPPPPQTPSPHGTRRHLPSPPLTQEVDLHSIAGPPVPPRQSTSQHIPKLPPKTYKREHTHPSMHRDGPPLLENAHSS

[3] = molecular target: T1, SOS1-KRAS; experiment: Inhibition of human N-terminal GST-tagged K-RasG12C mutant/human N-terminal His-tagged SOS1 preincubated for 2 mis followed by SOS1 addition and measured after 20 mins in presence of GDP-Dy647P1 by HTRF assay
[4] = molecular target: T1, SOS1-KRAS; experiment: Inhibition of human N-terminal GST-tagged K-RasG12C mutant/human N-terminal His-tagged SOS1 preincubated for 2 mis followed by SOS1 addition and measured after 60 mins by HTRF assay

Chain of Epidermal growth factor receptor (P00533 whole entry): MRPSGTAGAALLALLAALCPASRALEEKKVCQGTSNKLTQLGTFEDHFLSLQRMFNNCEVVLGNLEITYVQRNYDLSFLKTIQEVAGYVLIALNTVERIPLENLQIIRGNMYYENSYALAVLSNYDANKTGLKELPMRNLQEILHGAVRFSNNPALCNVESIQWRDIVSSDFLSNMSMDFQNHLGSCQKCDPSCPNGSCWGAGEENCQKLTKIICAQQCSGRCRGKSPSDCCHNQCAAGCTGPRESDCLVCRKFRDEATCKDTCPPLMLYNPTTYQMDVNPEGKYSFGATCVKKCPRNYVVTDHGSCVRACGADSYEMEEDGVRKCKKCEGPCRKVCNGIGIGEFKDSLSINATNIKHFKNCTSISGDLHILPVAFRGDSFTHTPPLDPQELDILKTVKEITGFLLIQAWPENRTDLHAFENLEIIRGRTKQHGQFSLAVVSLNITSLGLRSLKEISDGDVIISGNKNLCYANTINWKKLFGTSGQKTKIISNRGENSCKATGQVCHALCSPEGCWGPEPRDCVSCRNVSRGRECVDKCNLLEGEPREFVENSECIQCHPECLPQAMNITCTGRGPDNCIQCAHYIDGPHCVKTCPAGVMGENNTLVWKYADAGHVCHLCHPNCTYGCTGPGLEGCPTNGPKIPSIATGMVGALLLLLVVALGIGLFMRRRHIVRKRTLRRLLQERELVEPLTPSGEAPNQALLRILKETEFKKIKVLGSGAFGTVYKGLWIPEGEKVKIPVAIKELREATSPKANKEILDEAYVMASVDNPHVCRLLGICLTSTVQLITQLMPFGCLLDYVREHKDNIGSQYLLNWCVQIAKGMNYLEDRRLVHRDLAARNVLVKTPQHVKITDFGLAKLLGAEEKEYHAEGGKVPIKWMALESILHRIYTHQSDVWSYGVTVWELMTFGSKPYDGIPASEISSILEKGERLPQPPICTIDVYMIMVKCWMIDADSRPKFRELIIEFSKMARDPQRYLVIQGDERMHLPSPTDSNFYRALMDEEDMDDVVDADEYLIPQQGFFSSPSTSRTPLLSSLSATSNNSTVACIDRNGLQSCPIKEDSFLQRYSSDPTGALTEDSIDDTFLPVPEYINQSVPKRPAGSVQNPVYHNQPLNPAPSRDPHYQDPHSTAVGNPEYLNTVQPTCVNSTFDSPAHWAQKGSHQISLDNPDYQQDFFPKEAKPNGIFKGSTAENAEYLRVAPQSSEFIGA

| IC50 [1] | Structure (SMILES) | further results |
| --- | --- | --- |
| > 20 µM | CC(=O)N[C@H]1CCN(c2cc3c(NC(C)c4ccc(-c5ccccc5CN(C)C)s4)nc(C)nc3cn2)C1 (stereo in doubt; 61) |  |
| > 20 µM | CC(=O)NC1CCN(c2cc3c(NC(C)c4ccc(-c5ccccc5CN(C)C)s4)nc(C)nc3cn2)C1 (racemic) |  |
| > 20 µM | Cc1nc(NC(C)c2ccc(-c3ccccc3CN(C)C)s2)c2cc(N3CC(NC(=O)CN4CCOCC4)C3)ncc2n1 (centres undefined) |  |

The remaining lines, values behind:

| Structure (SMILES) | IC50 [1] | further results |
| --- | --- | --- |
| CC(=O)N[C@H]1CCN(c2cc3c(NC(C)c4ccc(-c5ccccc5CN(C)C)s4)nc(C)nc3cn2)C1 (stereo in doubt; 81) |  | IC50 ([1]; hela): > 20 µM |
| CC(=O)N[C@@H]1CCN(c2cc3c(NC(C)c4ccc(-c5ccccc5CN(C)C)s4)nc(C)nc3cn2)C1 (stereo in doubt; 60) | > 20 µM |  |
| CSc1cc2c(N[C@H](C)c3ccc(F)cc3)nc(C)nc2cn1 | > 20 µM |  |
| COc1cc2c(N[C@H](C)c3ccc(F)cc3)nc(C)nc2cn1 | > 20 µM |  |
| Cc1nc(NC(C)c2ccc(-c3ccccc3CN(C)C)s2)c2cc(N3CCNC(=O)C3)ncc2n1 (centres undefined) | > 20 µM | IC50 [2]: 0.054 µM; IC50 [3]: 0.048 µM |
| Cc1nc(NC(C)c2ccc(-c3ccccc3CN(C)C)s2)c2cc(OCCN(C)C)ncc2n1 (centres undefined) | > 20 µM | IC50 [3]: 0.027 µM; IC50 [4]: 0.03 µM |
| CC(=O)N[C@@H]1CCN(c2cc3c(NC(C)c4ccc(-c5ccccc5CN(C)C)s4)nc(C)nc3cn2)C1 (stereo in doubt; 79) |  | IC50 ([1]; hela): > 20 µM |
| CC(=O)N[C@@H]1CCN(c2cc3c(NC(C)c4ccc(-c5ccccc5CN(C)C)s4)nc(C)nc3cn2)C1 (stereo in doubt; 80) |  | IC50 ([1]; hela): > 20 µM |
| Cc1nc(NC(C)c2ccc(-c3ccccc3CN(C)C)s2)c2cc(N3CCN(Cc4cccnc4)CC3)ncc2n1 (centres undefined) | > 20 µM | IC50 [3]: 0.085 µM |
| CCCOc1cc2c(NC(C)c3ccc(-c4ccccc4CN(C)C)s3)nc(C)nc2cn1 (centres undefined) | > 20 µM | IC50 [3]: 0.038 µM |
| COCCOc1cc2c(N[C@H](C)c3ccc(F)cc3)nc(C)nc2cn1 | > 20 µM |  |
| CC(=O)N[C@H]1CCN(c2cc3c(NC(C)c4ccc(-c5ccccc5CN(C)C)s4)nc(C)nc3cn2)C1 (stereo in doubt; 82) |  | IC50 ([1]; hela): > 20 µM |
| CCOc1cc2c(N[C@H](C)c3ccc(F)cc3)nc(C)nc2cn1 | > 20 µM |  |
| CCOc1cc2c(N[C@H](C)c3ccccc3)nc(C)nc2cn1 | > 20 µM |  |
| CNCc1ccccc1-c1ccc(C(C)Nc2nc(C)nc3cnc(OCC4CCNC(=O)C4)cc23)s1 (centres undefined) | > 20 µM |  |

From ChEMBL document CHEMBL4334534, “Novel Methyl-aza-quinazolines as Inhibitors of the RAS-SOS Interaction” (ACS Med Chem Lett, 2020)
